Laboratory results: paper PMC10424183, “Determination of Ligand-Binding Affinity (Kd) Using Transverse Relaxation Rate (R2) in the Ligand-Observed ^1H NMR Experiment and Applications to Fragment-Based Drug Discovery” (Journal of Medicinal Chemistry, 2023)
Like-named read-outs stand apart in the source and are kept apart here.

Assays:
CRBN/DDB1 complex [1] = target: T1, CRBN/DDB1 complex (Homo sapiens, UniProt Q96SW2); assay: R2KD ligand-observed 1H NMR assay (Kd from transverse relaxation rate R2); type: binding
T1 construct: made in house
Protocol: 10 samples were prepared: samples 1–8 containing increasing ligand concentration (maintaining constant protein concentration); sample 9 and 10 containing only ligands at two different concentrations (protein absent). These two samples served as control samples to obtain the R2 values of free ligand. The final percentage of DMSO-d6 in all samples were identical to minimize possible impacts of DMSO-d6.
(§1) Here, we present how we used the R2KD assay to triage fragment hits against the CRBN/DDB1 complex. The CRBN/DDB1 complex is part of the E3 ligase system, with its thalidomide-binding domain (TBD) pocket critical for recruiting its substrate protein.[20] […] The R2 values of these fragments were measured at two ligand concentrations (200 and 50 μM) against 2 μM of the CRBN/DDB1 complex. This enabled preliminary ranking of hits. The hits with larger R2 differences rank higher. […] We also determined IC50 of the top 10 fragments using a FP based biochemical assay.[17]
(§2) The T2 relaxation experiment was acquired using pulse program CPMG with 3-9-19 pulse sequence with gradients incorporated to suppress the water signal.[22] Extra water suppression was achieved by adding presaturation during D1. The spin-echo period (delay-180°-delay) was set to 1 msec (d20 is 500 μs), and the relaxation delay (d1) was set to 10 s. The pseudo-2D experiment contained nine slices with spin-echo period repeated the following times: 4, 20, 100, 200, 300, 500, 700, 1000, and 2000.
Nonlinear regression analysis was carried out using GraphPad Prism 9.2.0. […] Three parameters: P, α, and Kd were in the equation with the initial value set at 1. […] CIs of parameters was calculated at 95% level using Asymmetrical (Profile-likelihood) CI.

CRBN/DDB1 complex [2] = target: T1, CRBN/DDB1 complex; details: known Ki from biochemical binding assay, Δ39CRBN/ΔBPBDDB1 complex; cited from earlier work
CRBN/DDB1 complex [3] = target: T1, CRBN/DDB1 complex; assay: R2 values of fragment hits at two ligand concentrations (preliminary ranking); type: binding; details: 2 μM CRBN/DDB1 complex; for average R2, compound at 50 μM: 50 μM ligand; for average R2, compound at 200 μM: 200 μM ligand; for average R2, differences: R2 at 50 μM minus R2 at 200 μM
Protocol: as §1, §2

CRBN/DDB1 complex [4] = target: T1, CRBN/DDB1 complex; assay: FP based biochemical assay; type: binding; details: top 10 fragments
Source text: To determine the accuracy of Kd measured using the R2KD assay, we tested seven small molecule ligands (Figure 4) against three protein targets (BCL6, CRBN/DDB1 complex, and ERAP1) and compared their Kd values from the R2KD assay with known Ki values (Table 1) obtained in biochemical binding assays[15],[17],[18] or Kd value from the SPR binding assay.[19] We found good agreements between the Kd values and the Ki values, with most of them less than two-fold difference from those determined from biochemical or biophysical assays. […] We found the assay setup to be simple and positive controls unnecessary, making the approach suitable for new and challenging targets.
Here, we present how we used the R2KD assay to triage fragment hits against the CRBN/DDB1 complex. The CRBN/DDB1 complex is part of the E3 ligase system, with its thalidomide-binding domain (TBD) pocket critical for recruiting its substrate protein.[20] A fragment library, composed of around 1000 compounds, was screened using R2 relaxation edited ^1H-NMR experiments, with 19 fragments subsequently identified as competitive hits for the TBD pocket. The R2 values of these fragments were measured at two ligand concentrations (200 and 50 μM) against 2 μM of the CRBN/DDB1 complex. This enabled preliminary ranking of hits. The hits with larger R2 differences rank higher. […] We then measured the Kd values of the top 10 fragments using R2KD assay and confirmed the ranking order (Table 2). We also determined IC50 of the top 10 fragments using a FP based biochemical assay.[17]

[5] = R2KD assay, Δ39CRBN/ΔBPBDDB1 complex, repeated three times (average), read-out: Kd
[6] = fragment hit triage, top 10 fragments, read-out: R2KD assay Kd

T1 sequence (Q96SW2 40-442 limits assumed, species assumed, one chain of several): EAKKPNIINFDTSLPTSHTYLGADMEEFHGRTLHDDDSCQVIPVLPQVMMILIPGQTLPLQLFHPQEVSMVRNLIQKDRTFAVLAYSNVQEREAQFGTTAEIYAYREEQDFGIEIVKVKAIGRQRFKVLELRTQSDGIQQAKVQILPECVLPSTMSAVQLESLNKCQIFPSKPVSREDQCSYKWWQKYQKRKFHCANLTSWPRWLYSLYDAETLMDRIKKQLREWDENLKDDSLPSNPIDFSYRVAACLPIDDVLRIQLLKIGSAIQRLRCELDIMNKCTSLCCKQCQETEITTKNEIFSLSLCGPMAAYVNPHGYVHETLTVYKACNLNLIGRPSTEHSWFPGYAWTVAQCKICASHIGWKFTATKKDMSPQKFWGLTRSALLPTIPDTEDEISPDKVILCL

Structure (SMILES)	Kd (CRBN/DDB1 complex [1]; [5]) [µM]	Kd (CRBN/DDB1 complex [1]; [6]) [µM]	average R2, compound at 50 μM (CRBN/DDB1 complex [3])	average R2, compound at 200 μM (CRBN/DDB1 complex [3])	average R2, differences (CRBN/DDB1 complex [3])	IC50 (CRBN/DDB1 complex [4]) [µM]	Ki (CRBN/DDB1 complex [2]) [µM]
CNC(=O)c1nc(-c2ccccc2)n(-c2ccccc2)n1 [CCT226703]	–	–	1.5	1.4	0.1	–	–
N#CCCCN1C(=O)COc2ccc(Cl)cc21 [CCT228155]	–	798	3	2.2	0.8	1640	–
O=C(c1ccc(F)cc1)N1CCN(c2ccccc2)CC1 [CCT240195]	–	–	1.6	1.4	0.2	–	–
Nc1ccc(C(=O)NCC2COc3ccccc3O2)cc1 (centres unmarked) [CCT240545]	–	638	2	1.5	0.5	> 3000	–
CC(=O)N1CCN(S(=O)(=O)c2ccc(C(C)C)cc2)CC1 [CCT240867]	–	–	1.2	1.1	0.1	–	–
CC(=O)Nc1cc2c(cc1C(=O)C(C)C)OCCO2 [CCT242848]	–	532	3.8	2.5	1.2	> 3000	–
N#CCCCn1c(=O)oc2ccc(Cl)cc21 [CCT242918]	–	–	1.6	1.3	0.3	–	–

Continued, in another order:

Kd (CRBN/DDB1 complex [1]; [5]) [µM]	Kd (CRBN/DDB1 complex [1]; [6]) [µM]	average R2, compound at 50 μM (CRBN/DDB1 complex [3])	average R2, compound at 200 μM (CRBN/DDB1 complex [3])	average R2, differences (CRBN/DDB1 complex [3])	IC50 (CRBN/DDB1 complex [4]) [µM]	Structure (SMILES)	Ki (CRBN/DDB1 complex [2]) [µM]
156	122	4.9	2	2.9	240	Cc1ccc(N2CC(=O)NC2=O)cc1 [CCT010354]	294
–	–	1.6	1.5	0.1	–	CCOc1cccc(C2CC(=O)NC3=C2C(=O)CCC3)c1 (centres unmarked) [CCT228041]	–
–	532	3.6	2.4	1.2	780	CCOc1ccc(C2CNC(=O)C2)cc1 (centres unmarked) [CCT239822]	–
–	–	1.6	1.5	0.1	–	O=CN1CCN(Cc2c(F)cccc2Cl)CC1 [CCT240107]	–
–	–	3.8	3.3	0.4	–	O=CN1CCN(Cc2cccc(Cl)c2)CC1 [CCT240121]	–
–	86	3.4	1.2	2.2	168	O=c1ccn(Cc2ccccc2)c(=O)[nH]1 [CCT240207]	–
–	–	1.5	1.3	0.2	–	COc1ccc(C(=O)N2CCN(c3ccccn3)CC2)cc1 [CCT240246]	–
88	72	7.2	2.6	4.6	153	COC(=O)c1ccc2c(c1)NC(=O)CO2 [CCT240569]	140
–	1200	2.5	2.1	0.5	1370	COc1cc2c(cc1OC)C(c1cccc(O)c1)CC(=O)N2 (centres unmarked) [CCT242858]	–
